According to the supplement of paper PMC10307832:

Assays:
Test in all cases: relative viability (nuclei count vs DMSO), 5 days (fraction); higher = more cells survive
Calu-6 = system: Calu-6
Outline: (§1)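 After 5 days of treatment, lung cancer cells in 1536-well plates were fixed and stained in a single step (final 0.05% Triton X-100, 1% formaldehyde, 1 ug/ml Hoechst) and their nuclei counted on 4× images. Treatment had been applied by pin tool the day after seeding as one drug alone or as a fixed anchor-drug dose with five library-drug doses (not always all listed) in √10 steps. Relative viability is the nuclei count of treated wells divided by that of vehicle wells, and values are medians of duplicate plates.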

NCI-H1755 = system: NCI-H1755
Outline: as §1

IA-LM = system: IA-LM
Outline: as §1

NCI-H1703 = system: NCI-H1703
Outline: as §1

A549 = system: A549
Outline: as §1

A-427 = system: A-427
Outline: as §1

CAL-12T = system: CAL-12T
Outline: as §1

EBC-1 = system: EBC-1
Outline: as §1

LK-2 = system: LK-2
Outline: as §1

NCI-H1651 = system: NCI-H1651
Outline: as §1

NCI-H1299 = system: NCI-H1299
Outline: as §1

SMILES: CCNC(=O)c1noc(-c2cc(C(C)C)c(O)cc2O)c1-c1ccc(CN2CCOCC2)cc1 [Luminespib] + CS(=O)(=O)N1CCN(Cc2cc3nc(-c4cccc5[nH]ncc45)nc(N4CCOCC4)c3s2)CC1 [Pictilisib] (partner 1 µM)
- relative viability (Calu-6; first compound 0.002 µM): 1.04
- relative viability (Calu-6; first compound 0.006325 µM): 0.847
- relative viability (Calu-6; first compound 0.02 µM): 1
- relative viability (Calu-6; first compound 0.06325 µM): 0.119
- relative viability (Calu-6; first compound 0.2 µM): 0.112
- relative viability (NCI-H1755; first compound 0.002 µM): 0.399
- relative viability (NCI-H1755; first compound 0.006325 µM): 0.372
- relative viability (NCI-H1755; first compound 0.02 µM): 0.351
- relative viability (NCI-H1755; first compound 0.06325 µM): 0.136
- relative viability (NCI-H1755; first compound 0.2 µM): 0.105
- relative viability (IA-LM; first compound 0.002 µM): 0.324
- relative viability (IA-LM; first compound 0.006325 µM): 0.369
- relative viability (IA-LM; first compound 0.02 µM): 0.159
- relative viability (IA-LM; first compound 0.06325 µM): 0.0483
- relative viability (IA-LM; first compound 0.2 µM): 0.0407
- relative viability (NCI-H1703; first compound 0.002 µM): 0.251
- relative viability (NCI-H1703; first compound 0.006325 µM): 0.244
- relative viability (NCI-H1703; first compound 0.02 µM): 0.179
- relative viability (NCI-H1703; first compound 0.06325 µM): 0.179
- relative viability (NCI-H1703; first compound 0.2 µM): 0.165
- relative viability (A549; first compound 0.002 µM): 0.536
- relative viability (A549; first compound 0.006325 µM): 0.517
- relative viability (A549; first compound 0.02 µM): 0.152
- relative viability (A549; first compound 0.06325 µM): 0.0437
- relative viability (A549; first compound 0.2 µM): 0.0569
- relative viability (A-427; first compound 0.002 µM): 0.62
- relative viability (A-427; first compound 0.006325 µM): 0.634
- relative viability (A-427; first compound 0.02 µM): 0.441
- relative viability (A-427; first compound 0.06325 µM): 0.733
- relative viability (A-427; first compound 0.2 µM): 0.35
- relative viability (CAL-12T; first compound 0.002 µM): 0.336
- relative viability (CAL-12T; first compound 0.006325 µM): 0.395
- relative viability (CAL-12T; first compound 0.02 µM): 0.25
- relative viability (CAL-12T; first compound 0.06325 µM): 0.111
- relative viability (CAL-12T; first compound 0.2 µM): 0.143
- relative viability (EBC-1; first compound 0.002 µM): 0.471
- relative viability (EBC-1; first compound 0.006325 µM): 0.365
- relative viability (EBC-1; first compound 0.02 µM): 0.248
- relative viability (EBC-1; first compound 0.06325 µM): 0.118
- relative viability (EBC-1; first compound 0.2 µM): 0.128
- relative viability (LK-2; first compound 0.002 µM): 0.569
- relative viability (LK-2; first compound 0.006325 µM): 0.548
- relative viability (LK-2; first compound 0.02 µM): 0.373
- relative viability (LK-2; first compound 0.06325 µM): 0.312
- relative viability (LK-2; first compound 0.2 µM): 0.218
- relative viability (NCI-H1651; first compound 0.002 µM): 0.592
- relative viability (NCI-H1651; first compound 0.006325 µM): 0.608
- relative viability (NCI-H1651; first compound 0.02 µM): 0.403
- relative viability (NCI-H1651; first compound 0.06325 µM): 0.136
- relative viability (NCI-H1651; first compound 0.2 µM): 0.162
- relative viability (NCI-H1299; first compound 0.002 µM): 0.874
- relative viability (NCI-H1299; first compound 0.006325 µM): 0.698
- relative viability (NCI-H1299; first compound 0.02 µM): 0.767
- relative viability (NCI-H1299; first compound 0.06325 µM): 0.0703
- relative viability (NCI-H1299; first compound 0.2 µM): 0.0666

SMILES: CCNC(=O)c1noc(-c2cc(C(C)C)c(O)cc2O)c1-c1ccc(CN2CCOCC2)cc1 [Luminespib] + C[C@@H](Oc1cc(-c2cnn(C3CCNCC3)c2)cnc1N)c1c(Cl)ccc(F)c1Cl [Crizotinib] (partner 1 µM)
- relative viability (Calu-6; first compound 0.002 µM): 0.793
- relative viability (Calu-6; first compound 0.006325 µM): 0.88
- relative viability (Calu-6; first compound 0.02 µM): 1.01
- relative viability (Calu-6; first compound 0.06325 µM): 0.109
- relative viability (Calu-6; first compound 0.2 µM): 0.097
- relative viability (NCI-H1755; first compound 0.002 µM): 0.878
- relative viability (NCI-H1755; first compound 0.006325 µM): 0.882
- relative viability (NCI-H1755; first compound 0.02 µM): 0.938
- relative viability (NCI-H1755; first compound 0.06325 µM): 0.756
- relative viability (NCI-H1755; first compound 0.2 µM): 0.315
- relative viability (IA-LM; first compound 0.002 µM): 0.753
- relative viability (IA-LM; first compound 0.006325 µM): 0.848
- relative viability (IA-LM; first compound 0.02 µM): 1
- relative viability (IA-LM; first compound 0.06325 µM): 0.0538
- relative viability (IA-LM; first compound 0.2 µM): 0.04
- relative viability (NCI-H1703; first compound 0.002 µM): 0.806
- relative viability (NCI-H1703; first compound 0.006325 µM): 0.653
- relative viability (NCI-H1703; first compound 0.02 µM): 0.367
- relative viability (NCI-H1703; first compound 0.06325 µM): 0.119
- relative viability (NCI-H1703; first compound 0.2 µM): 0.0858
- relative viability (A549; first compound 0.002 µM): 0.861
- relative viability (A549; first compound 0.006325 µM): 0.593
- relative viability (A549; first compound 0.02 µM): 0.51
- relative viability (A549; first compound 0.06325 µM): 0.0411
- relative viability (A549; first compound 0.2 µM): 0.0426
- relative viability (A-427; first compound 0.002 µM): 1.09
- relative viability (A-427; first compound 0.006325 µM): 0.796
- relative viability (A-427; first compound 0.02 µM): 0.955
- relative viability (A-427; first compound 0.06325 µM): 0.873
- relative viability (A-427; first compound 0.2 µM): 0.835
- relative viability (CAL-12T; first compound 0.002 µM): 0.7
- relative viability (CAL-12T; first compound 0.006325 µM): 0.635
- relative viability (CAL-12T; first compound 0.02 µM): 0.636
- relative viability (CAL-12T; first compound 0.06325 µM): 0.06
- relative viability (CAL-12T; first compound 0.2 µM): 0.0967
- relative viability (EBC-1; first compound 0.002 µM): 0.196
- relative viability (EBC-1; first compound 0.006325 µM): 0.195
- relative viability (EBC-1; first compound 0.02 µM): 0.179
- relative viability (EBC-1; first compound 0.06325 µM): 0.173
- relative viability (EBC-1; first compound 0.2 µM): 0.165
- relative viability (LK-2; first compound 0.002 µM): 0.215
- relative viability (LK-2; first compound 0.006325 µM): 0.217
- relative viability (LK-2; first compound 0.02 µM): 0.269
- relative viability (LK-2; first compound 0.06325 µM): 0.231
- relative viability (LK-2; first compound 0.2 µM): 0.196
- relative viability (NCI-H1651; first compound 0.002 µM): 0.85
- relative viability (NCI-H1651; first compound 0.006325 µM): 0.901
- relative viability (NCI-H1651; first compound 0.02 µM): 0.787
- relative viability (NCI-H1651; first compound 0.06325 µM): 0.813
- relative viability (NCI-H1651; first compound 0.2 µM): 0.63
- relative viability (NCI-H1299; first compound 0.002 µM): 0.953
- relative viability (NCI-H1299; first compound 0.006325 µM): 0.953
- relative viability (NCI-H1299; first compound 0.02 µM): 1.01
- relative viability (NCI-H1299; first compound 0.06325 µM): 0.915
- relative viability (NCI-H1299; first compound 0.2 µM): 0.229
